Test results reported in the CheMixHub ionic liquid set.

Assay: xn = mol fraction of the nth substance listed
Conditions: for viscosity: 101.3 kPa; for electrical conductivity: 100 kPa

NC(N)=NCCC[C@H](N)C(=O)O + CCCC[n+]1ccn(C)c1.[Br-] + O
viscosity [mPa·s]
Conditions	293.15 K	298.15 K	303.15 K	308.15 K	313.15 K
x1 = 0.000359, x2 = 0	1.013	0.904	0.839	0.771	0.691
x1 = 0.0003655, x2 = 0.00072	1.037	0.922	0.833	0.754	0.688
x1 = 0.0003655, x2 = 0.001439	1.058	0.914	0.816	0.744	0.675
x1 = 0.0007208, x2 = 0	1.025	0.915	0.851	0.783	0.703
x1 = 0.0007266, x2 = 0.0007198	1.048	0.933	0.844	0.766	0.7
x1 = 0.0007324, x2 = 0.001438	1.069	0.925	0.827	0.756	0.686
x1 = 0.001079, x2 = 0	1.036	0.927	0.863	0.795	0.715
x1 = 0.001088, x2 = 0.0007195	1.059	0.944	0.855	0.777	0.712
x1 = 0.001098, x2 = 0.001438	1.08	0.936	0.838	0.767	0.698
x1 = 0.001446, x2 = 0	1.047	0.938	0.874	0.806	0.726
x1 = 0.001452, x2 = 0.0007192	1.07	0.955	0.866	0.788	0.723
x1 = 0.001462, x2 = 0.001437	1.091	0.947	0.849	0.778	0.709
x1 = 0.001811, x2 = 0.000719	1.081	0.966	0.877	0.799	0.734
x1 = 0.00182, x2 = 0	1.059	0.949	0.885	0.817	0.737
x1 = 0.001827, x2 = 0.001437	1.102	0.958	0.86	0.789	0.72
x1 = 0.002121, x2 = 0.001436	1.114	0.97	0.872	0.801	0.732
x1 = 0.002158, x2 = 0	1.073	0.961	0.897	0.829	0.749
x1 = 0.002174, x2 = 0.0007187	1.093	0.978	0.889	0.811	0.746
x1 = 0.002516, x2 = 0	1.087	0.975	0.911	0.843	0.763
x1 = 0.002537, x2 = 0.0007185	1.106	0.991	0.902	0.824	0.759
x1 = 0.002557, x2 = 0.001436	1.127	0.983	0.885	0.814	0.745

[Cl][Zn][Cl] + CCCC[n+]1ccn(C)c1.[Cl-]
303.15 K
Conditions	electrical conductivity [S/m]
x2 = 0.333	0.00188
x2 = 0.5	0.0237
x2 = 0.666	0.0171

C[NH+](C)CCC=C1c2ccccc2CCc2ccccc21.[Cl-] + CCCC[n+]1ccn(C)c1.[Cl-] + O
electrical conductivity [S/m]
Conditions	298 K	303 K	308 K	313 K	318 K
x2 = 0.00018, x1 = 0.0007057	0.498	0.501	0.511	0.509	0.527
x2 = 0.00018, x1 = 0.0007396	0.512	0.519	0.535	0.522	0.55
x2 = 0.00018, x1 = 0.000773	0.524	0.533	0.538	0.536	0.564
x2 = 0.00018, x1 = 0.0008057	0.543	0.55	0.551	0.561	0.581
x2 = 0.00018, x1 = 0.0008382	0.56	0.564	0.566	0.57	0.595
x2 = 0.00018, x1 = 0.0008701	0.569	0.578	0.58	0.587	0.613
x2 = 0.00018, x1 = 0.0009016	0.579	0.589	0.597	0.602	0.629
x2 = 0.00018, x1 = 0.0009322	0.591	–	0.611	0.62	–
x2 = 0.0001801, x1 = 8.875e-05	0.189	0.186	0.193	0.19	0.188
x2 = 0.0001801, x1 = 0.0001104	0.201	0.198	0.203	0.202	0.202
x2 = 0.0001801, x1 = 0.0001321	0.215	0.209	0.216	0.212	0.21
x2 = 0.0001801, x1 = 0.0001534	0.227	0.223	0.228	0.224	0.224
x2 = 0.0001801, x1 = 0.0001747	0.24	0.235	0.239	0.238	0.235
x2 = 0.0001801, x1 = 0.0001956	0.251	0.248	0.247	0.249	0.249
x2 = 0.0001801, x1 = 0.0002165	0.272	0.27	0.274	0.259	0.26
x2 = 0.0001801, x1 = 0.0002578	0.293	0.288	0.293	0.277	0.285
x2 = 0.0001801, x1 = 0.0002984	0.313	0.306	0.315	0.301	0.31
x2 = 0.0001801, x1 = 0.0003383	0.328	0.328	0.335	0.321	0.332
x2 = 0.0001801, x1 = 0.0003776	0.348	0.345	0.353	0.34	0.351
x2 = 0.0001801, x1 = 0.0004164	0.365	0.368	0.37	0.357	0.374
x2 = 0.0001801, x1 = 0.0004544	0.385	0.383	0.388	0.381	0.392
x2 = 0.0001801, x1 = 0.0004919	0.406	0.401	0.407	0.397	0.413
x2 = 0.0001801, x1 = 0.0005289	0.42	0.416	0.427	0.42	0.431
x2 = 0.0001801, x1 = 0.0005653	0.437	0.435	0.44	0.433	0.455
x2 = 0.0001801, x1 = 0.0006012	0.451	0.452	0.46	0.457	0.471
x2 = 0.0001801, x1 = 0.0006365	0.469	0.469	0.476	0.472	0.493
x2 = 0.0001801, x1 = 0.0006715	0.485	0.485	0.496	0.491	0.51
x2 = 0.0001802, x1 = 2.245e-05	0.15	–	0.147	0.156	0.152
x2 = 0.0001802, x1 = 4.474e-05	0.165	0.159	0.162	0.167	0.163
x2 = 0.0001802, x1 = 6.683e-05	0.177	0.174	0.182	0.179	0.176
